The source of these data is paper PMC6679371, “Synthesis and Evaluation of Novel Pyrazole Ethandiamide Compounds as Inhibitors of Human THP-1 Monocytic Cell Neurotoxicity” (Cells, 2019).

Molecules are shown by their SMILES. Entries after “also recorded” stand apart in the source; their conditions may differ.

In series [1] the test system is stimulated human monocytic THP-1 cells. In words: Viability of LPS plus IFN-γ stimulated THP-1 cells (MTT assay). It counts as cell-based. As to conditions: 1–100 μM, added 15 min before LPS plus IFN-γ, 24 h. How it is done:
(§1) The MTT assay was performed as described by Mosmann and by Hansen et al.. Cell viability was determined by adding MTT to the cell cultures to reach a final concentration of 500 μg mL^−1. Following one h incubation at 37 °C, the dark purple crystals formed by viable cells were dissolved by adding to the wells an equal volume of the extraction buffer containing 20% sodium dodecyl sulfate and 50% N,N-dimethylformamide, pH 4.7. After overnight incubation at 37 °C, 100 μL aliquots of MTT solutions were transferred to a 96-well plate, and a FLUOstar Omega platereader (BMG Labtech, Offenburg, Germany) was used to measure the optical densities at 570 nm. Cell viability in various samples was calculated as percent of the optical density value obtained with cells incubated in fresh cell culture medium only.
(§2) The anti-neurotoxic activity of the compounds was evaluated using a method described previously. Human monocytic THP-1 cells were transferred to 24-well plates in 800 µL aliquots of 5 × 10^5 cells mL^−1 per well. The cells were pre-incubated with varying concentrations of pyrazole derivatives or their DMSO vehicle solution for 15 min before stimulation with a combination of lipopolysaccharide (LPS, 0.5 µg mL^−1) and human interferon-γ (IFN-γ, 150 U mL^−1). […] After 24 h incubation, 400 µL of supernatants from THP-1 cells was transferred to SH-SY5Y cells (seeded 24 h earlier in 24-well plates; 400 µL of 2 × 10^5 cells mL^−1). The viability of THP-1 cells was measured by the MTT assay immediately after the transfer of the supernatants. The effects of THP-1 cell supernatants on SH-SY5Y neuronal cell viability were measured by the MTT assay after 72 h incubation. […] The concentrations of stimuli and incubation times of THP-1 cells with the stimuli were selected in preliminary experiments so that significant partial killing of SH-SY5Y cells was achieved (20–30% viable cells left), which could be a result of the combined action of cytotoxins secreted by THP-1 cells and depletion of nutrients from the cell culture medium by the stimulated THP-1 cells.

Series [2] has as its system immune-stimulated human THP-1 monocytic cells (toxicity toward SH-SY5Y neuronal cells). In words: Anti-neurotoxic activity: supernatants of compound-treated stimulated THP-1 cells transferred to SH-SY5Y cells (MTT assay). In kind it is cell-based. As to conditions: for IC50: Homo sapiens, estimated from Figure 4, read-out: IC50 for reducing toxic effect of stimulated THP-1 supernatants on SH-SY5Y cells. The protocol:
as §1, §2

Series [3] deals with SH-SY5Y cells. Kind of series: Neuroprotective activity: compounds added directly to SH-SY5Y cells with stimulated THP-1 supernatants (MTT assay). It counts as cell-based, human. How it is done: as §1
SH-SY5Y cells were seeded into 24-well plates (400 µL at 2 × 10^5 cells mL^−1). After 24 h incubation, the cell culture medium was replaced with 400 µL of supernatants from THP-1 cells that had been stimulated for 24 h with LPS plus IFN-γ, as described in 2.6. Varying concentrations of the compounds or the DMSO vehicle solution were added directly to SH-SY5Y cells at the time of the supernatant transfer. The viability of SH-SY5Y cells was measured by the MTT assay 72 h later.
For orientation: Tetrazolium dyes change colour on reduction, which living cells bring about.

In series [4] the test system is human PC-3 prostate cancer cells. In words: Cytotoxicity of pyrazole derivatives to PC-3 cells (MTT assay). It counts as cell-based. As to conditions: 100 μM (highest concentration tested), 48 h. The protocol:
as §1
PC-3 prostate cancer cells were transferred to 24-well plates in 500 µL aliquots of 1.5 × 10^5 cells mL^−1 per well. Varying concentrations of the pyrazole derivatives or the 0.5% DMSO vehicle were added to the cells. After 48 h incubation, cell viability was measured by using the MTT assay.

The test system of series [5] is SH-SY5Y cells. On the set-up: method as in PMID 20609589. Particulars: earlier report; cited from earlier work.

`N#Cc1cnn(-c2ccccc2)c1NC(=O)C(=O)NCCCCCCCCCN` [2a] yielded a melting point of 108 to 110 °C. For the same molecule, in series [1], the “toxicity to stimulated THP-1 cells (cell viability, MTT)” value (shortened to “toxicity to stimulated THP-1 cells”) was “None of these six derivatives were toxic”. In addition, the IC50 in series [2] was 50 to 100 µM. In series [2] (tested 1–100 μM, Dunnett's post-hoc test), the “concentrations at which the protective effect was statistically significant” value amounted to 100 µM.

`N#Cc1cnn(-c2ccccc2)c1NC(=O)C(=O)N(C1CCCCC1)C1CCCCC1` [2b]: the melting point was 188 to 190 °C. For the same molecule, in series [1], the “toxicity to stimulated THP-1 cells” value is reported as “None of these six derivatives were toxic”. Further, the half-maximal inhibitory concentration (IC50) in series [2] was 10 to 50 µM.

Take `CN(C)C(=O)C(=O)Nc1c(C#N)cnn1-c1ccccc1` [2c]: the melting point fell in the range of 250 to 253 °C. For the same molecule, in series [1], the “toxicity to stimulated THP-1 cells” value is recorded as “None of these six derivatives were toxic”. Moreover, in series [2], the IC50 was 10 to 50 µM.

For the molecule `C=CCNC(=O)C(=O)Nc1c(C#N)cnn1-c1ccccc1` [2d], the melting point fell in the range of 108 to 110 °C. Also, the “change in SH-SY5Y cell viability, compound added directly” value in the series with SH-SY5Y cells [3] (100 μM, 72 h) is recorded as “small but significant decrease in SH-SY5Y cell viability”. In addition, in series [4], the “change in PC-3 cell viability” value was “small yet significant increase in cell viability”. For the same molecule, the “toxicity to stimulated THP-1 cells” value in series [1] was “None of these six derivatives were toxic”. Further, the “change in SH-SY5Y cell viability” value in series [2] (100 μM, supernatant transfer from treated THP-1 cells, 72 h) is “small but significant decrease in SH-SY5Y cell viability; also recorded: small yet significant reduction of SH-SY5Y cell viability”. Also, the “protective (anti-neurotoxic) effect” value in series [2] (1–100 μM) is on record as “no protective effect”.

With `N#Cc1cnn(-c2ccccc2)c1NC(=O)C(=O)Nc1ccc(N)cc1` [2e], the melting point lay within 258 to 261 °C. Also, the “toxicity to stimulated THP-1 cells” value in series [1] was “None of these six derivatives were toxic”. Besides, the IC50 in series [2] was 10 to 50 µM.

The molecule `N#Cc1cnn(-c2ccccc2)c1NC(=O)C(=O)Nc1ccc(O)cc1` [2f] came in with a melting point of 237 to 239 °C.

As for `N#Cc1cnn(-c2ccccc2)c1NC(=O)C(=O)Nc1c(C#N)cnn1-c1ccccc1` [compound 1], the direct neuroprotective activity result in the series on SH-SY5Y cells [5] is “showed this effect”.

The molecule `CN(C)CCOC(=O)C(=O)Nc1c(C#N)cnn1-c1ccccc1` [compound 3] came in with a melting point of 139 to 141 °C. Further, the “direct neuroprotective effect on SH-SY5Y cells” value with SH-SY5Y cells [3] (1–100 μM, added at the time of supernatant transfer) is “neuroprotective effect”. In the series on SH-SY5Y cells [3] (Homo sapiens, SH-SY5Y, 100 μM, 72 h, without compound 20–30%), this molecule displayed a viability at 100 µM greater than 40%. In addition, the “toxicity to stimulated THP-1 cells” value in series [1] is on record as “None of these six derivatives were toxic”. Moreover, the IC50 in series [2] is 10 to 50 µM.

What is called melting point is the temperature of the solid-liquid transition. The IC50 is the concentration that gives 50% inhibition. Broadly, the viability is the share of living cells, or the viability signal relative to a control. A low value points to more harm to the cells.
